Test results as given in US8937167B2 (Washington University, priority 2009, dated 2015).
Entries after “also recorded” stand apart in the source; their conditions may differ. Read-outs that look alike come from different tables or passages of the source.

How the values were obtained:
FimH = FimH (Escherichia coli, UniProt Q1R2J4); conditions: Examples 30-36 numbering;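 note: hemagglutination inhibition of guinea pig erythrocytes agglutinated by type 1 piliated uropathogenic E. coli via FimH mannose binding, quantified through serial dilutions of compound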
UTI89 = assay: Ex vivo gentamicin protection assay of infected mouse bladders (luminal vs intracellular bacteria); format: in vivo, E. coli (UPEC); host mouse; conditions: IP 5 mg/kg pretreatment; 6 hpi
Source text: Based on the extensive elucidation of the UPEC pathogenic cascade, critical nodes in pathogenesis that mannosides would target and thereby have powerful and potent therapeutic ramifications were identified. The first step in the UPEC pathway involves FimH-mediated colonization of the bladder epithelium via the recognition of mannose receptors. Bacterial invasion into superficial bladder umbrella cells can then ensue. […] To test this, a well-established gentamicin protection assay that allows the determination of the luminally bound fraction versus the intracellular fraction was utilized (FIG. 10). […] This may be due to contamination from bacteria in the urine or bacteria that are non-specifically associated with the epithelium. In any case, blocking invasion blocks the ability of the bacteria to rapidly expand in numbers. This is due to the ability of the mannosides to block the IBC mechanism.
Gentamicin protection assay. To enumerate bacteria present in the intracellular versus extracellular compartments, bladders were aseptically harvested at 6 hpi. The bladders were then bisected twice and washed three times in 500 μl of PBS each. The wash fractions were pooled, lightly spun at 500 rpm for 5 min to pellet exfoliated bladder cells, serially diluted, and plated onto LB agar to obtain the luminal fraction. The bladders were treated with 100 μg of gentamicin/ml for 90 min at 37° C. After treatment, the bladders were washed twice with PBS to eliminate residual gentamicin, homogenized in 1 ml of PBS, serially diluted, and plated onto LB agar to enumberate the CFUs in the intracellular fraction.
To enumerate bacteria present in the intracellular versus extracellular compartments, bladders were aseptically harvested at 6 hpi. The bladders were then bisected twice and washed three times in 500 μl of PBS each. The wash fractions were pooled, lightly spun at 500 rpm for 5 min to pellet exfoliated bladder cells, serially diluted, and plated onto LB agar to obtain the luminal fraction. The bladders were treated with 100 μg of gentamicin/ml for 90 min at 37° C. […]

UTI89 biofilm = assay: Disruption of preformed UTI89 biofilm (PVC plates, coverslips, confocal); format: cell-based, uropathogenic E. coli UTI89; conditions: mannoside added to 24 h biofilm, further 16 h; confocal at 0.3 μM
Method: UTI89 biofilm was grown in LB+/− mannoside for 24 h at 22° C. in PVC plates and quantitated using crystal violet. UTI89 biofilm for confocal microscopy was grown in LB for 24 h at 22° C. on PVC coverslips. Mannoside was then added and biofilm was grown for an additional 16 h. Coverslips were then washed in PBS, fixed in 2% paraformaldehyde and stained with SYTO9 prior to confocal microscopy. For all animal experiments UTI89 or PBC-1 was grown 2×24 h statically in LB at 37° C. and inoculated at a dose of 1×10^7 bacteria in 50 μl. All mice used were female C3H/HeN (Jackson). For the pretreatment studies, bacteria were incubated with mannoside for 20 min prior to inoculation into the mouse. […] After growth at 37° C. overnight, bacterial counts were determined. […]
Biofilm assay. […] After 48 h of growth, wells were rinsed with water and stained with crystal violet for quantification as described. […] Wells were then rinsed, stained with crystal violet and quantified. […]
UTI89 was grown in LB in PVC plates and allowed to form biofilm at RT for 24 or 48 h. […] Biofilm formation was then quantitated using the standard crystal violet assay. […]
UTI89 was grown in LB broth in wells of PVC microtiter plates at 23° C. in the presence of individual mannosides at varying concentrations. After 48 h of growth, wells were rinsed with water and stained with crystal violet for quantification as described. […]

COC(=O)c1cccc(-c2ccc(O[C@H]3O[C@H](CO)[C@@H](O)[C@H](O)[C@@H]3O)cc2)c1 [Compound 1, phenyl mannoside, reference compound]
HAI Titer EC>90 (FimH; Table 17): 1.00 µM
HAI Titer EC>90 (FimH; Table 20): 1.000 µM

CNC(=O)c1cc(C(=O)NC)cc(-c2ccc(O[C@H]3O[C@H](CO)[C@@H](O)[C@H](O)[C@@H]3O)cc2)c1 [ZFH-2056]
intracellular bacteria (CFUs after gentamicin treatment) (UTI89): eliminated all CFUs; also recorded: significantly reduced
luminal bacteria (UTI89): significantly reduced
disruption / dispersal of preformed biofilm, qualitative (UTI89 biofilm): lacked continuity; also recorded: dispersed biofilm
